Reference: PubChem BioAssay (NCI)
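Method: 48-hour compound exposure of cells in 96-well plates, five concentrations, linear interpolation of endpoints. At the GI50, growth is halved. TGI: concentration producing complete growth inhibition.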

Tests used:
Test in all cases: NCI-60 cell line screen, 48 h
[1] = test system: BT-549 breast
[2] = test system: HCT-116 colon
[3] = test system: MOLT-4 leukemia
[4] = test system: SF-295 CNS
[5] = test system: SK-MEL-2 melanoma
[6] = test system: SNB-19 CNS
[7] = test system: SW-620 colon
[8] = test system: U251 CNS
[9] = test system: UACC-257 melanoma
[10] = test system: SNB-75 CNS

| SMILES | TGI [1] | TGI [2] | TGI [3] | TGI [4] | TGI [5] | TGI [6] | TGI [7] | TGI [8] | TGI [9] | TGI [10] | GI50 [3] | GI50 [4] | GI50 [6] |
| --- | --- | --- | --- | --- | --- | --- | --- | --- | --- | --- | --- | --- | --- |
| CCc1n[nH]c(=O)n1N=C(c1ccccc1)c1ccccc1 | > 100 µM | > 100 µM | > 100 µM | > 100 µM | > 100 µM | > 100 µM | > 100 µM | > 100 µM | > 100 µM |  |  |  |  |
| Cc1sc2nc3n(c(=O)c2c1C)N=C(c1ccccc1)CS3 | > 100 µM | > 100 µM | > 100 µM | > 100 µM |  |  | > 100 µM | > 100 µM | > 100 µM | > 100 µM |  |  |  |
| COc1cc(CC(=O)c2cc3c(cc2-c2ccccc2)OCO3)cc(OC)c1OC |  | > 100 µM | > 100 µM | > 100 µM | > 100 µM | > 100 µM | > 100 µM | > 100 µM | > 100 µM | 35.8 µM |  |  |  |
| CCSc1[nH]c(NC(=NC(C)C)NC(=O)c2ccccc2)c(C(N)=O)c1C(N)=O |  |  | > 10 µM | > 10 µM |  |  | > 10 µM |  | > 10 µM | > 10 µM |  |  |  |
| Nc1ccn(CCCC(c2ccccc2)P(=O)(O)O)c(=O)n1 (configuration not stated) |  | > 100 µM |  | > 100 µM | > 100 µM | > 100 µM | > 100 µM | > 100 µM | > 100 µM | > 100 µM |  |  |  |
| O=C1CCc2ccccc2O1 |  | > 100 µM | > 100 µM | > 100 µM | > 100 µM | > 100 µM | > 100 µM | > 100 µM | > 100 µM | > 100 µM |  |  |  |
| O=C1C(=Cc2ccc([N+](=O)[O-])o2)C(=O)N(CCc2ccccc2)S(=O)(=O)N1CCc1ccccc1 |  | 29.9 µM | 56.6 µM | > 100 µM | 35.2 µM | > 100 µM | 33.9 µM | > 100 µM | > 100 µM | > 100 µM |  |  |  |
| CC(C)(/C=N/O)/[N+]([O-])=C/c1ccccc1 |  | > 100 µM | > 100 µM | > 100 µM | > 100 µM | > 100 µM | > 100 µM | > 100 µM | > 100 µM | > 100 µM |  |  |  |
| COc1ccc2nc3c([N+](=O)[O-])ccc(NCCCN(C)C)c3c(N)c2c1 |  | 0.464 µM | 1.69 µM | 2.95 µM | 4.78 µM | 4.23 µM | 1.71 µM | 3.02 µM |  | 3.47 µM |  |  |  |
| O=C(CSc1nnc(-c2ccc(N=Cc3ccc(Cl)cc3)cc2)o1)Nc1cccc([N+](=O)[O-])c1 |  | > 100 µM | > 100 µM | > 100 µM | > 100 µM | > 100 µM | > 100 µM | > 100 µM | > 100 µM | > 100 µM |  |  |  |
| COc1ccc(N2C(=O)C3C=CC(n4[nH]c(=O)n(Cc5ccccc5)c4=O)CC3C2=O)cc1 (configuration not stated) |  | > 100 µM | > 100 µM | > 100 µM | > 100 µM | > 100 µM | > 100 µM | > 100 µM | > 100 µM | > 100 µM |  |  |  |
| O=c1cc(NNc2cccc(F)c2)[nH]c(=S)[nH]1 | > 100 µM | > 100 µM |  | > 100 µM |  | > 100 µM | > 100 µM | > 100 µM | > 100 µM |  |  |  |  |
| O=C1C(Cl)C(c2ccc([N+](=O)[O-])cc2)N1n1cnc2ccccc2c1=O (configuration not stated) |  | > 100 µM | > 100 µM | 68.9 µM | > 100 µM | > 100 µM | > 100 µM | > 100 µM | > 100 µM | 39 µM |  |  |  |
| N#CC(C#N)C1CN2CCC1CC2 (configuration not stated) |  | > 100 µM | > 100 µM | > 100 µM | > 100 µM | > 100 µM | > 100 µM | > 100 µM | > 100 µM | > 100 µM |  |  |  |
| COc1ccc(C2NC3=C(CCCC3)N2)cc1 |  | > 100 µM | > 100 µM | > 100 µM | > 100 µM |  |  | > 100 µM | > 100 µM | > 100 µM |  |  |  |
| NNC(=S)NN/C=C(\C=Nc1ccccc1)[N+](=O)[O-] |  | > 100 µM |  | > 100 µM | > 100 µM | > 100 µM | > 100 µM |  | > 100 µM | > 100 µM |  |  |  |
| Cc1csc2c(=O)n(COCc3ccccc3)c(=O)[nH]c12 | > 100 µM | > 100 µM | > 100 µM | > 100 µM |  | > 100 µM | > 100 µM | > 100 µM | > 100 µM | > 100 µM |  |  |  |
| Cc1cc2c(cc1-c1cc3c(cc1C)C(C(C)C)=C(O)C(=O)/C3=C\Nc1ccccn1)/C(=C/Nc1ccccn1)C(=O)C(O)=C2C(C)C |  | > 100 µM | > 100 µM | > 100 µM | 86.5 µM | > 100 µM | > 100 µM | > 100 µM | > 100 µM | > 100 µM |  |  |  |
| Cc1cc(=O)[nH]c(NNC(C#N)c2ccc(N(C)C)cc2)n1 (configuration not stated) |  | > 100 µM |  | > 100 µM | > 100 µM |  | > 100 µM | > 100 µM | > 100 µM | > 100 µM |  |  |  |

| SMILES | TGI [1] | TGI [2] | TGI [3] | TGI [4] | TGI [5] | TGI [6] | TGI [7] | TGI [8] | TGI [9] | TGI [10] | GI50 [3] | GI50 [4] | GI50 [6] |
| --- | --- | --- | --- | --- | --- | --- | --- | --- | --- | --- | --- | --- | --- |
| COc1cc(CC2C(=O)OCC2[C@@H](OC(C)=O)c2ccc3c(c2)OCO3)c(Br)c(OC)c1OC (some centres not stated) |  | > 100 µM | > 100 µM | > 100 µM | > 100 µM | > 100 µM | > 100 µM |  | > 100 µM | > 100 µM |  |  |  |
| O=C1NC2OC(CO)C(O)C(O)C2O1 (configuration not stated) |  | > 100 µM | > 100 µM | > 100 µM | > 100 µM | > 100 µM | > 100 µM | > 100 µM | > 100 µM | > 100 µM |  |  |  |
| O=C1[C@H](O)[C@@H]2CCC[C@@]23CCCN13 |  | > 100 µM | > 100 µM | > 100 µM |  |  | > 100 µM | > 100 µM | > 100 µM | > 100 µM |  |  |  |
| CC(C)(CO)NC(=O)c1cccs1 |  | > 100 µM | > 100 µM | > 100 µM | > 100 µM | > 100 µM | > 100 µM | > 100 µM | > 100 µM |  |  |  |  |
| Brc1ccc(C[N+]23CN4CN(CN(C4)C2)C3)cc1 |  | 79.8 µM | 69 µM | > 100 µM |  | > 100 µM | 82.3 µM | > 100 µM | > 100 µM | > 100 µM |  |  |  |
| COc1cc(O)c2c(=O)c(OC)c(-c3ccc(OC)c(OC)c3)oc2c1.[Sn] | > 100 µM |  | > 100 µM | > 100 µM |  | > 100 µM | > 100 µM |  |  | > 100 µM | 80.1 µM | 17.4 µM | > 100 µM |
| CC(=O)CC12NC(=O)N(C)N=C1N(C)C(=O)N(C)C2=O (configuration not stated) | > 100 µM | > 100 µM | > 100 µM | > 100 µM |  |  | > 100 µM | > 100 µM | 40.4 µM | > 100 µM |  |  |  |
| CCOC(=O)C1=C(O)c2ccc(OC)cc2C(=O)C1=O |  | > 100 µM | > 100 µM | > 100 µM | > 100 µM | > 100 µM | > 100 µM | > 100 µM | > 100 µM | > 100 µM |  |  |  |
| N#Cc1c(O)c(C=O)c(=O)n2c1[nH]c1ccccc12 | > 100 µM | > 100 µM | > 100 µM | > 100 µM |  | > 100 µM | > 100 µM | > 100 µM | > 100 µM | > 100 µM |  |  |  |
| CC(=O)Nc1ccc(C(=O)n2[nH]c(C)c(/C=C3\C(=O)C=Cc4ccccc43)c2=O)cc1 |  | > 100 µM | > 100 µM | > 100 µM | 95.3 µM | > 100 µM | > 100 µM |  | > 100 µM | > 100 µM |  |  |  |
| O=C1C(=O)N(C23CC4CC(CC(C4)C2)C3)C(=S)N1c1ccccc1 |  | > 100 µM | > 100 µM | > 100 µM | > 100 µM | > 100 µM | > 100 µM | > 100 µM | > 100 µM | > 100 µM |  |  |  |
| O=C1NC(Cc2ccccc2)C(=O)N2CCCC12 (configuration not stated) |  | > 100 µM | > 100 µM | > 100 µM | > 100 µM | > 100 µM | > 100 µM | > 100 µM | > 100 µM | > 100 µM |  |  |  |
| N/C(=N/N=C/c1cccc(F)c1)NO |  | > 100 µM | > 100 µM | > 100 µM | > 100 µM | > 100 µM | > 100 µM | > 100 µM | > 100 µM | > 100 µM |  |  |  |
| COc1ccc(OC)c(-c2cc(=O)c3cc4c(cc3[nH]2)OCO4)c1 |  | > 35.7 µM | > 84.9 µM | > 27.6 µM | > 51.3 µM | > 100 µM | > 100 µM | > 77.9 µM | > 100 µM | > 38.1 µM |  |  |  |
| COC(=O)CC1NC(=O)C1C(C)(OC)OC (configuration not stated) |  | > 100 µM | > 100 µM | > 100 µM | > 100 µM | > 100 µM | > 100 µM | > 100 µM | > 100 µM | > 100 µM |  |  |  |
| COc1cccc(/C=N/NC(=O)CN(C)C)c1O | > 100 µM | > 100 µM | > 100 µM | > 100 µM |  | > 100 µM | > 100 µM | > 100 µM | > 100 µM |  |  |  |  |
| C[C@]12CCC(=O)C=C1CC[C@@H]1C2CC[C@@]2(C)C1CC[C@@H]2OC(=O)C12OC1CCC2=O (some centres not stated) |  | 29.2 µM | 32.6 µM | 34.7 µM | 29.8 µM | 44.3 µM | 32.1 µM | 29.1 µM | 35.9 µM | 33.9 µM |  |  |  |
| CCCCc1c2c(nc3c1CCCC3=O)CCCC2 |  | > 100 µM | > 100 µM | > 100 µM |  | > 100 µM | > 100 µM | > 100 µM |  |  |  |  |  |
